# Reference: patent publication US10183039B2, “Methods for the production of collagen IV” (Vanderbilt University, priority 2013, dated 2019)
# Where two headings read alike, the source gives them in different places.
# Key:
# thyroid peroxidase = target: T1, thyroid peroxidase (Homo sapiens, UniProt P07202); settings: cited from earlier work
# T1 sequence (P07202 19-933): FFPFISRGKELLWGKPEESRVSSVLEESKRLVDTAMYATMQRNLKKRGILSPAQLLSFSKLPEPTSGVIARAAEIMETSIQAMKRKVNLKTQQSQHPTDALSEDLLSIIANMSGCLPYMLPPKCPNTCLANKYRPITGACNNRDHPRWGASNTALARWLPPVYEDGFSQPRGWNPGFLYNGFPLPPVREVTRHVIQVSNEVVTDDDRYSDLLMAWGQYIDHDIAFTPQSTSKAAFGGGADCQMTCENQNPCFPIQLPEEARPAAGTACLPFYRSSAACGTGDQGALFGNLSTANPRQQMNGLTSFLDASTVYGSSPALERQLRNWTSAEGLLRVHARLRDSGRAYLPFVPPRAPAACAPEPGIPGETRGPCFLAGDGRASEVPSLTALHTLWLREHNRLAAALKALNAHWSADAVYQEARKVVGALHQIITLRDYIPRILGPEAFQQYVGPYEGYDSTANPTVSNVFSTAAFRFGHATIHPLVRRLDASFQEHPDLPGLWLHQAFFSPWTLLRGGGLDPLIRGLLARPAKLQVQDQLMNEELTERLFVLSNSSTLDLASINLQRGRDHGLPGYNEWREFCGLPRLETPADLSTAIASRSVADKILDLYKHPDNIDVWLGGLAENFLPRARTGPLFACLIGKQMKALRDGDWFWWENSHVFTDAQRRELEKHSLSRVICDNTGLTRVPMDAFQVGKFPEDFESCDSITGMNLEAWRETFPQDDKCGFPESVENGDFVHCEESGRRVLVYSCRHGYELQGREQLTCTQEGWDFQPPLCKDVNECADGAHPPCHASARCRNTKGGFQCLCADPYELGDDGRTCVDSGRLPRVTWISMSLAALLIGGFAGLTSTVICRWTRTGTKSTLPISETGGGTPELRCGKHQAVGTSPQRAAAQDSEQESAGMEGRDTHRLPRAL
# PFHR-9 cells = experiment: Collagen IV sulfilimine crosslink formation in PFHR-9 cell culture (NC1 hexamer, SDS-PAGE); format: cell-based, mouse; settings: inhibitor present during cellular deposition of basement membrane; FIG. 2A: PHG 50 μM, MMI 1 mM, KI 10 mM, 3-AT 10 mM, BAPN 500 μM, putrescine 2.5 mM
# myeloperoxidase = target: T2, myeloperoxidase (Homo sapiens, UniProt P05164); settings: cited from earlier work
# T2 sequence (P05164 49-745): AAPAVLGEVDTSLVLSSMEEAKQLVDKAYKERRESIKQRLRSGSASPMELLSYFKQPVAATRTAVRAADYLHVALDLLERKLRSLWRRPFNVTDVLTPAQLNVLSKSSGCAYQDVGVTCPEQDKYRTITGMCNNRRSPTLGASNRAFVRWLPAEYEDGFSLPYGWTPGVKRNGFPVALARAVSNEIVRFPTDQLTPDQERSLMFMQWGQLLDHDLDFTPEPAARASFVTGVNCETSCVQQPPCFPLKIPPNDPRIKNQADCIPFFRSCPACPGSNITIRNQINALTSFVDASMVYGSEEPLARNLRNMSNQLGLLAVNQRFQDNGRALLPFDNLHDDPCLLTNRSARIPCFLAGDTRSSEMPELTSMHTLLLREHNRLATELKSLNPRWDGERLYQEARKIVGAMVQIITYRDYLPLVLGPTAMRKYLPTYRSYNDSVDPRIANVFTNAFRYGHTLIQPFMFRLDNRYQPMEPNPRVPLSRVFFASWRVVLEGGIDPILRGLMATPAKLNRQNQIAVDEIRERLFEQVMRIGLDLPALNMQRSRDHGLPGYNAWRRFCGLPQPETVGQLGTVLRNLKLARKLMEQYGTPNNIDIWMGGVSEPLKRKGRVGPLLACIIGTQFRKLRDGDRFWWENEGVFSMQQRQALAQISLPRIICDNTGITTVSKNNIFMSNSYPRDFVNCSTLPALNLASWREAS
# [1] = target: horseradish peroxidase (HRP) (Armoracia rusticana, UniProt P00433); settings: with H2O2; cited from earlier work
# horseradish peroxidase (HRP), sequence (P00433 31-338 limits assumed): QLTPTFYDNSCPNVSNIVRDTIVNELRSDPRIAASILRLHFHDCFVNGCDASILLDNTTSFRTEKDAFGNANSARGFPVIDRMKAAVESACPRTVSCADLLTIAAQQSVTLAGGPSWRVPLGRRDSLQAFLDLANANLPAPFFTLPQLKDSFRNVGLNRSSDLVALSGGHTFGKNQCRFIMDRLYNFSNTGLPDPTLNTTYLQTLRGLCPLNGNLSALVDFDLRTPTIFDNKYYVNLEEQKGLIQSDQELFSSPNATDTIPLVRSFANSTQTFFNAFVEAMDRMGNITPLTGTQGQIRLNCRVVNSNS
# Drosophila eggs = settings: PHG in the food, excess dietary (100 μM) Br^−
# Method: All eggs deposited in a quadrant of a 55 mm laying cage were moved to a fresh phytagel surface and oriented with dorsal appendages facing the surface for quantitation of the aspect ratio which is calculated by dividing the anterior-posterior axis length by the egg's diameter. Eggs were collected after 168 hours of exposure to standard or experimental diets.
# (FIG. 18B) Br^− concentration effect on egg aspect ratio, in single age-matched cohort of w^1118 flies, over time. Vertical axis represents mean aspect ratio (±S.E.M). […] Inset plotted as mean±95% C.I. and significance calculated with the Kruskall-Wallis test. […] PHG was administered in the food. All wild-type (w^1118) mothers were from the same cohort and reared identically, then divided into sub-cohorts for exposure to the indicated experimental diet.
# [2] = system: PFHR-9 basement membrane collagen IV; experiment: HEK293 cell overlay on uncrosslinked PFHR-9 collagen IV networks; format: cell-based, mouse; settings: HEK293 cells plated on uncrosslinked PFHR-9 basement membrane; PHG 50 μM where present
# Method: FIGS. 5A-D—Peroxidasin uniquely crosslinks native collagen IV networks. (FIG. 5A) Experimental design of ‘overlay’ experiments. PFHR-9 cells were grown in the presence of phloroglucinol (PHG; 50 μM) to deposit uncrosslinked collagen IV (Col IV) networks. The cells were then removed, and the basement membrane was extracted with 4 M guanidine (Gdn) to inactivate endogenous peroxidasin. Cells stably transfected with human peroxidasin (PXDN) or untransfected HEK293 cells (WT HEK) were plated on top of the PFHR9 basement membrane, which was subsequently analyzed for collagen IV crosslink content. (FIG. 5B) Collagen IV-sulfilimine bond formation in the indicated experimental conditions as shown by stained SDS-PAGE gel. Two (WT HEK cells) or three (PXDN, with or without PHG) out of five independent experiments are shown. MW, molecular weight. (FIG. 5C) Coomassie blue-stained gel of collagen IVNC1 hexamers isolated from uncrosslinked PFHR-9 basement membrane overlaid with HEK293T cells transiently transfected with human peroxidasin cDNA, mouse myeloperoxidase cDNA (MPO), mouse lactoperoxidase cDNA (LPO) or empty vector (Mock). […]
# PFHR-9 cells were grown in the presence of 50 μM phloroglucinol to produce noncrosslinked collagen IV. […] Plates were incubated for 24-48 h, and collagen IV was analyzed for NC1 crosslink formation. […]
# peroxidase = peroxidase (Drosophila melanogaster, UniProt Q9VZZ4); settings: Nelson et al., 1994; read-out: half-maximum inhibitory concentration (IC50); cited from earlier work
# peroxidase, sequence (Q9VZZ4 24-1527): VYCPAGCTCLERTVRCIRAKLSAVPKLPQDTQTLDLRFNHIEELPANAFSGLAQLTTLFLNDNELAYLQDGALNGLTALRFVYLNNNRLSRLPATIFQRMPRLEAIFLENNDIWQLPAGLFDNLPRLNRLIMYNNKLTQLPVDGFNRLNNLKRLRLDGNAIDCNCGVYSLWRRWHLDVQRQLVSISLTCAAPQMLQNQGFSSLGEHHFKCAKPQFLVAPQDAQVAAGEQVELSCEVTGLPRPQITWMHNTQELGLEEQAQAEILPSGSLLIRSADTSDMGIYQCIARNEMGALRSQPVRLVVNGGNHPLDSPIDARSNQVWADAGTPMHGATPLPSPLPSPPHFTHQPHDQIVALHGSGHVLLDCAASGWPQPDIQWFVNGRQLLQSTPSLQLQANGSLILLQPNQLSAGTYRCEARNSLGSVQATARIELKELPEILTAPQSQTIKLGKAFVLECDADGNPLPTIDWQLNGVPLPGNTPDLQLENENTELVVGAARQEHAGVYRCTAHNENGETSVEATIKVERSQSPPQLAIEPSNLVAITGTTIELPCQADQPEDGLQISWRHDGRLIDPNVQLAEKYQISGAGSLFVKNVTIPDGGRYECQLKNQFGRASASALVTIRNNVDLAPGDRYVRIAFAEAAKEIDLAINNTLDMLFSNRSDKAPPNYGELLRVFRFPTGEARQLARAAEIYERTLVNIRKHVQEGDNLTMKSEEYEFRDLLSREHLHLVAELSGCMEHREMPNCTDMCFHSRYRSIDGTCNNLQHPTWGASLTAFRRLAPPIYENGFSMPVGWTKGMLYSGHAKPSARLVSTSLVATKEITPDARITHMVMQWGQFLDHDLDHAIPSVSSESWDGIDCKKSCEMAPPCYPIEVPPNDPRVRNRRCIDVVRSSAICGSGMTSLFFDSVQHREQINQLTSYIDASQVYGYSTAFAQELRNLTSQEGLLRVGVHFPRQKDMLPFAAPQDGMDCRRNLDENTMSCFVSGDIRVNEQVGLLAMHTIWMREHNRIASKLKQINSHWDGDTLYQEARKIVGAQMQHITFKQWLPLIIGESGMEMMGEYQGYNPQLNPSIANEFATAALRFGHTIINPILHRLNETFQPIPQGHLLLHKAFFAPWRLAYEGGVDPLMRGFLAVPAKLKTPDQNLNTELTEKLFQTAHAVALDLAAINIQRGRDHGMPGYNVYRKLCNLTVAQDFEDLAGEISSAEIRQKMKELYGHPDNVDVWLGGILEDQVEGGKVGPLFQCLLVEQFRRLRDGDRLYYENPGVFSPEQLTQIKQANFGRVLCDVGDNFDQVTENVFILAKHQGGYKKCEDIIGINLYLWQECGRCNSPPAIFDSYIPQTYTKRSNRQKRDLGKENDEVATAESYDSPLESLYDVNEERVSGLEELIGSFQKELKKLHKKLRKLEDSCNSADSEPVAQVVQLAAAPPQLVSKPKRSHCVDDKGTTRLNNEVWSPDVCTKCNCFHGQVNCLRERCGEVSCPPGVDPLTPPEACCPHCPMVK
# transglutaminase = settings: Candi et al., 1995; cited from earlier work
# Lysyl oxidase = target: T3, Lysyl oxidase (Bos taurus, UniProt P33072); settings: Tang et al., 1983; cited from earlier work
# T3 sequence (P33072 170-418): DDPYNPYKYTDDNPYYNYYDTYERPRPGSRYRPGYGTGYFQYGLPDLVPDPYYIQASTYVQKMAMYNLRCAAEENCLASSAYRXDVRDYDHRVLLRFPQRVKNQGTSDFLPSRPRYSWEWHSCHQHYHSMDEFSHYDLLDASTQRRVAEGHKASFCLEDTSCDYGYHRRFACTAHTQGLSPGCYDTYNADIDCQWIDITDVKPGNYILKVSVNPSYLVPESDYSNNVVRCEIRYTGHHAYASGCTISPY
# [3] = Hypohalous acid production by peroxidases (taurine haloamine trapping); format: biochemical; settings: for hypohalous acid formation: 1×PBS plus 100 μM NaBr or without added Br—; for HOCl production: 1×PBS without added Br— (FIG. 3D)
# Method: (§1) (FIG. 3A) SDS-PAGE of reactions consisting of 16 nM purified human peroxidasin (PXDN), 500 nM monomeric NC1 hexamer (3 μM potential crosslinks) and 10 μM H2O2 in 1×PBS. Control reactions without H2O2 or in the presence of the peroxidase inhibitor phloroglucinol (PHG; 50 μM) were also conducted. D represents crosslinked dimeric NC1 subunits, and M denotes uncrosslinked monomeric subunits. MW, molecular weight. (FIG. 3B) Coomassie blue-stained gel after SDS-PAGE of collagen IVNC1 hexamer is shown to illustrate relative amounts of sulfilimine-crosslinked dimeric (D) and uncrosslinked monomeric (M) subunits after incubation of uncrosslinked PFHR-9 basement membranes in varying buffer halide concentrations (Br— or Cl— as K+ salt) with or without 1 mM H2O2. (FIG. 3C) PXDN-mediated hypohalous acid (HOX) production expressed as nmol hypohalous acid generated per nmol enzyme per min, measured in 1×PBS plus 100 μM NaBr. Values represent mean±s.e.m. (n=3). (FIG. 3D) HOCl production measured directly in 1×PBS without added Br—. Values denote mean±s.e.m. (n=4). […] (FIG. 3E) HOX production, measured in nmol HOX generated per nmol enzyme per min for myeloperoxidase (MPO), eosinophil peroxidase (EPO) or LPO in 1×PBS plus 100 μM NaBr. Values represent mean±s.e.m. (n=3).
# Hypohalous acids were trapped as stable taurine haloamines, which oxidize tetramethylbenzidine to yield a colorimetric measure of hypohalous acid concentration and production (Dypbukt et al., 2005).
# Animal heme peroxidases, such as peroxidasin, myeloperoxidase, eosinophil peroxidase and lactoperoxidase, catalyze oxidative reactions using distinct halogenation and peroxidase cycles (Obinger, 2006). Both begin with hydrogen peroxide oxidation of the prosthetic heme iron to form an intermediate denoted compound I (Obinger, 2006). Compound I may oxidize halides into their respective hypohalous acids (or related oxidants in equilibrium), which may directly or indirectly halogenate susceptible moieties. Alternatively, compound I undergoes sequential reduction to form single electron-free radicals of energetically favorable substrates in the peroxidase cycle. Both pathways eventually regenerate reduced, native enzyme (Obinger, 2006). To determine whether peroxidasin forms sulfilimine bonds using a halogenation cycle, the inventors first tested whether peroxidasin crosslinks collagen IV in the absence of halides.
# collagen IV NC1 hexamer = experiment: Purified peroxidases reacted with uncrosslinked NC1 hexamer and H2O2; format: biochemical, mouse; settings: 16 nM enzyme, 500 nM NC1 hexamer, 10 μM H2O2, 1×PBS
# Method: as §1
# PHG, phloroglucinol; MW, molecular weight.
# If peroxidasin uses hypohalous acids as intermediates to form sulfilimine bonds, these intermediates should recapitulate the reaction when directly added to purified, uncrosslinked collagen IV NC1 hexamer. […] Alternatively, other peroxidasesis provided to form reactive hypohalous acids.
molecule,measurement,setting,value
Nc1nc[nH]n1 [3-aminotriazole],inhibition of thyroid peroxidase,thyroid peroxidase; 2 mM,near-complete inhibition
same,formation of collagen IV crosslinks,PFHR-9 cells,prevented formation of collagen IV crosslinks
same,inhibition of myeloperoxidase,myeloperoxidase; 10 mM,near-complete inhibition
[N-]=[N+]=[N-] [azide],Ki,[1],1470 µM
same,kinact,[1],0.69 min⁻¹
Cn1cc[nH]c1=S [methimazole],IC50,thyroid peroxidase,0.8 µM
same,formation of collagen IV crosslinks,PFHR-9 cells,prevented formation of collagen IV crosslinks
same,inhibition of myeloperoxidase,myeloperoxidase; 3 mM,70%
"Oc1cc(O)cc(O)c1 [phloroglucinol, reference compound]",egg aspect ratio under peroxidasin inhibition,Drosophila eggs,dose-dependent suppression in egg aspect ratio
same,egg aspect ratio under peroxidasin inhibition,Drosophila eggs; listed as PHG,dose-dependent reduction in the exaggerated egg elongation
same,formation of collagen IV crosslinks,PFHR-9 cells,prevented formation of collagen IV crosslinks
same,crosslinking of native collagen IV network by overlaid cells,[2],failed to crosslink collagen IV
same,IC50,peroxidase,0.5 µM
NCCCCN [putrescine],Km,transglutaminase,26 to 847 µM
same,formation of collagen IV crosslinks,PFHR-9 cells,had no effect
N#CCCN [β-aminopropionitrile],IC50,Lysyl oxidase,3 to 8 µM
same,formation of collagen IV crosslinks,PFHR-9 cells,had no effect
eosinophil peroxidase: animal heme peroxidase used as comparator,hypohalous acid formation,[3],primarily yielded hypobromous acid
same,formation of sulfilimine crosslinks in NC1 hexamer,collagen IV NC1 hexamer,formed sulfilimine crosslinks in collagen IV
lactoperoxidase: animal heme peroxidase used as comparator,hypohalous acid formation,[3],formed neither hypohalous acid
same,HOCl production,[3],not statistically different from zero
same,formation of sulfilimine crosslinks in NC1 hexamer,collagen IV NC1 hexamer,poorly catalyzed crosslink formation
"peroxidasin: heterologously expressed and purified human peroxidasin, a basement membrane heme peroxidase",crosslinking of native collagen IV network by overlaid cells,[2],Only peroxidasin formed sulfilimine bonds in collagen IV
same,hypohalous acid formation,[3],formed hypobromous and hypochlorous acid at modest rates with a preference for bromide
same,HOCl production,[3],significantly greater than that mediated by lactoperoxidase
same,formation of sulfilimine crosslinks in NC1 hexamer,collagen IV NC1 hexamer,robust formation of crosslinked dimeric subunits
